System: NPC TCF/LEF luciferase reporter, Wnt3a EC25, 24 h
Assay: Wnt/beta-catenin signaling activators, dose response, cell-based, iPS-derived NPC, luciferase, Wnt3a, cherry-pick (AID 1053144);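 also: Wnt3a stimulus is conditioned medium from Wnt3a-transfected mouse L cells at 5% in well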

Row | SMILES | AC30 [µM]
1 | Cc1cc(-c2nc3ccccc3c(=O)o2)ccc1[N+](=O)[O-] | 16.2
2 | O=C(/C=C/c1ccc(O)c(O)c1)c1ccccc1O | 8.06
3 | O=C(/C=C\c1ccc(-c2ccccc2)o1)c1ccccc1 | 4.16
4 | O=C(OCC(=O)c1ccc(Br)s1)c1ccc(O)cc1 | 15.8
5 | CCOC(=O)N1CCC(Nc2c(NCCCN3CCN(c4ccc(OC)cc4)CC3)c(=O)c2=O)CC1 | 19.5
6 | O=C(Nc1ncccc1O)c1ccc2c(c1)OCCO2 | 5.13
7 | Fc1ccccc1-c1ccc(/C=N/Nc2nc3ccccc3[nH]2)o1 | 17.3
8 | COc1ccc(-c2ccc(SCC(=O)Nc3cc(C)on3)nn2)cc1OC | 15.1
9 | COc1ccc(-c2ccc3ccccc3n2)cc1OC | 9.49
10 | Cc1ccc(OCC(=O)Nc2ccccc2C(N)=O)cc1 | 7.04
11 | CCOC(=O)C(NC(=O)c1ccc(F)cc1)(Nc1sc2c(c1C(N)=O)CCC2)C(F)(F)F (stereo not given) | 16.3
12 | CCOC(=O)C1=C(COC(=O)c2cccc(N(C)C)c2)NC(=O)NC1C (stereo not given) | 11.8
13 | c1ccc2c(c1)oc1c(Nc3ccc4c(c3)OCO4)ncnc12 | 4.78
14 | O=C(NCCc1ccccc1)c1cc(-c2ccco2)on1 | 10.7
15 | CCNc1nc(N)c(C(=O)c2ccc(Cl)s2)s1 | 11.3
16 | O=C(NCCCn1ccnc1)c1cc(-c2ccccc2)on1 | 7.41
17 | O=c1oc(CCO)cc2ccc(C#Cc3ccsc3)cc12 | 4.78
18 | CCCC(=O)Nc1ccc(C(=O)COC(=O)C2CC2)cc1 | 5.63
19 | CCc1cc2c(=O)[nH]c(-c3ccccn3)nc2s1 | 10.2
20 | O=C(CCCCCCC(=O)Nc1ccccc1)NO | 1.47
21 | Cc1cccc(NC(=O)c2c(O)c3ccccc3[nH]c2=O)c1 | 6.72
22 | CCc1ccccc1-n1c(SCC(=O)N2CCCC2)nnc1-c1ccccn1 | 8.48
23 | COc1ccccc1CNC(=O)COc1ccccc1C(=O)c1cnn(-c2ccccc2)c1 | 10
24 | Cc1cc(C)n(CCC(=O)N/N=C/c2ccc(Br)c([N+](=O)[O-])c2)n1 | 17.2
25 | O=C1Nc2ccccc2S/C1=C/c1cccs1 | 12.9
26 | N/C(=N\OC(=O)c1ccco1)c1ccc(Cl)cc1 | 11.8

Row | SMILES | AC30 [µM]
27 | CCOc1ccc(CCNC(=O)/C=C/c2ccco2)cc1OCC | 13.5
28 | COCCNC(=O)c1cc(-c2cccs2)on1 | 16.9
29 | CSc1ccccc1C(=O)Nc1ccc2c(c1)CCC2 | 3.13
30 | c1ccc(-c2cc(-c3ccccc3)on2)cc1 | 4.78
31 | CCCCOC(=O)Nc1ccc(C(=O)OC)cc1 | 11.7
32 | O=C(Nc1ccc(NC(=O)C2CCCCC2)nc1)c1cccs1 | 10.1
33 | CC1=NN(c2ccccc2)C(=O)C1N=Nc1ccccc1 (stereo not given) | 4.78
34 | O=C(/C=C/c1ccccc1)c1c[nH]c2ccccc12 | 4.78
35 | CC(C)C1COC(c2cccc3ccccc23)=N1 (stereo not given) | 4.78
36 | O=C(c1cc2ccccc2o1)c1cccs1 | 8.58
37 | Cc1ccc(-n2ncc3c(Nc4cccc(C(=O)O)c4)ncnc32)cc1 | 4.78
38 | O=C(Nc1nc2cc3c(cc2s1)OCCO3)c1ccc([N+](=O)[O-])o1 | 9.12
39 | Nc1ccc(-c2nc3cc([N+](=O)[O-])ccc3o2)cc1 | 4.78
40 | O=C(NCCO)c1ccc2c3n(nc2c1)-c1ccc(Cl)cc1CO3 | 12.3
41 | CNC(=O)c1ccsc1NC(=O)c1sc2ccccc2c1Cl | 12.4
42 | O=C1C=C(c2ccc3[nH]ccc3c2)CCC1 | 10.1
43 | O=C(O)c1ccc(N=Nc2c(O)[nH]c3cc(Cl)ccc23)cc1 | 4.78
44 | CCOC(=O)c1ccc(-c2ccc(CO)o2)cc1 | 17.5
45 | O=c1oc2ccccc2cc1-c1nc2ccccc2o1 | 8.58
46 | COCCNC(=O)c1cc2c(s1)-c1ccc(Cl)cc1SC2 | 11.2
47 | CCCc1cc(C(=O)Nc2cccc(C(C)=O)c2)no1 | 10.5
48 | O=C(Nc1ccc(Cl)cc1)OCc1ccccn1 | 9.15
49 | COc1ccc2[nH]c(=O)c(CNc3ccccc3C)cc2c1 | 17.3
50 | COc1ccc2sc(NC(=O)CC(C)C)nc2c1 | 13.4
51 | CCCNC(=O)c1oc2ccc3c(c2c1C)C=CC(C)(C)O3 | 8.63
52 | Oc1ccc(Br)cc1-c1cc(-c2ccccc2F)[nH]n1 | 12.9

Row | SMILES | AC30 [µM]
53 | CCc1ccccc1NC(=O)c1cccc(NC(=O)/C=C/c2ccco2)c1 | 13.2
54 | O=C(/C=C/c1ccco1)Nc1ccc2c(c1)OCO2 | 12.1
55 | COc1cc(C(=O)O/N=C2\C=CC(=O)C(C)=C2)cc(OC)c1OC | 16
56 | O=C(NCC1CCCO1)c1cc(-c2ccc(F)cc2)no1 (stereo not given) | 15.9
57 | O=C(O)c1ccc2c(c1)C(=O)N(c1ccc(/C=C/C(=O)c3ccccc3)cc1)C2=O | 18.7
58 | CCC(=O)NC1=C(Nc2ccc(N)cc2)C(=O)c2ccccc2C1=O | 5.42
59 | Cc1ccsc1/C=N\NC(=O)c1ccc2c(c1)OCO2 | 4.78
60 | O=C(Nc1ccc(Br)cn1)c1ccc(Br)s1 | 4.78
61 | O=[N+]([O-])c1cccc(-c2nnc(-c3ccccc3F)o2)c1 | 8.84
62 | COc1ccccc1OCc1cc(C(=O)N(C)CCC2CCOCC2)no1 | 9.94
63 | O=[N+]([O-])c1ccccc1-c1nc(-c2ccc(Br)o2)no1 | 4.78
64 | COc1ccc(C(=O)NC2=NCCS2)cc1 | 9.19
65 | Cc1ccc2nc(-c3ccc(NS(=O)(=O)c4ccc(F)cc4)cc3)sc2c1 | 4.78
66 | Cc1ccc2nc(-c3ccc(NC(=O)CSCC(=O)O)cc3)sc2c1 | 2.04
67 | CCOc1ccc(-c2nnc(-c3ccccc3)n2-c2ccccc2)cc1 | 12.4
68 | O=C(N/N=C/C(Br)=C\c1ccccc1)c1cccs1 | 13.7
69 | O=C(Nn1cnc2ccccc2c1=O)c1c(F)cccc1F | 18.8
70 | CC1CCc2c(C(=O)Nc3ccccn3)csc2C1 (stereo not given) | 4.65
71 | Nc1ccc2nc3c(=O)n(C4CCCCC4)c(=O)[nH]c3nc2c1 | 10.5
72 | Nc1c2ccccc2nc2ccccc12 | 5.99
73 | COCCNC(=O)c1ccc2c3n(nc2c1)-c1ccc(C)cc1CO3 | 10.7
74 | O=C(c1ccc(-c2ccc(Cl)cc2Cl)o1)N1CCOCC1 | 8.53
75 | COc1cc(/C=C/c2ccc3cccc(O)c3n2)cc(OC)c1OC | 13.7
76 | COc1ccc(C(=O)O/N=C(\N)c2ccc(Cl)cc2)cc1 | 9.22
77 | CC1(C)CC(=O)/C(=N/Nc2ccc(Cl)cc2)CO1 | 4.78
78 | Cc1ccc2cc(NC(=O)c3cccc(F)c3)ccc2n1 | 10.5

Row | SMILES | AC30 [µM]
79 | CC1(C)CC(=O)C2=C(C1)c1c(ccc3ccccc13)NC2c1ccco1 (stereo not given) | 14.8
80 | COc1ccc(/C=N/Nc2ccccn2)cc1O | 11.6
81 | Cc1cccc(/C(N)=N/OC(=O)c2ccc(Br)o2)c1 | 11.7
82 | Fc1ccccc1-c1nc(-c2ccncc2)no1 | 2.79
83 | Cc1cc(O)c(NC(=O)c2cccc([N+](=O)[O-])c2)cc1C | 11.2
84 | O=C(c1ccccc1)c1ccc2nc(-c3ccco3)c(-c3ccco3)nc2c1 | 8.23
85 | O=C(Nc1ccccc1O)c1ccc(NC(=O)C2CC2)cc1 | 5.37
86 | COc1ccc2c(c1)c(/C=N/Nc1nc3ccccc3[nH]1)c(C)n2C | 12.1
87 | Cc1ccc(C(=O)NNc2ncnc3ccccc23)cc1 | 8.88
88 | Nc1nc(-c2cc3ccccc3o2)cs1 | 4.78
89 | O=C(/C=C/c1ccco1)NCCc1ccccc1 | 5.05
90 | COc1ccc(C(=O)COC(=O)c2sccc2C)cc1OC | 11.8
91 | O=C(Nc1ncccc1O)c1ccc(Oc2ccccc2)cc1 | 12.3
92 | O=Nc1c(-c2c(O)[nH]c3cc(Br)ccc23)[nH]c2ccccc12 | 0.942
93 | Cc1cc(N(C)C)ccc1N=Nc1ccc2ncccc2c1 | 2.2
94 | CN(C)S(=O)(=O)Oc1cccc(C(=O)Nc2cccc(Cl)c2)c1 | 13
95 | CC(=O)Nc1sc2c(c1-c1nc3ccccc3s1)CN(C(C)C)CC2 | 2.43
96 | CCn1c(SCC(=O)c2ccc(Cl)cc2)nnc1C(C)C | 12.1
97 | Cc1ccc2cc(/C=C/C(=O)c3ccco3)c(Cl)nc2c1 | 16.8
98 | Cc1[nH]c2ccccc2c1/C=N/Nc1nc2ccccc2[nH]1 | 5.61
99 | Nc1ccccc1C(=O)/C=C/c1ccc2c(c1)OCO2 | 2.2
100 | CCOC(=O)c1c(C)[nH]c(C(=O)COC(=O)C2(C)CC2(Cl)Cl)c1C (stereo not given) | 6.45
101 | Oc1ccccc1-c1nnc(COc2ccc(Cl)cc2Cl)o1 | 10.5
102 | O=C(NCCN1CCOCC1)c1cc(-c2ccccc2)on1 | 8.01
103 | O=C(CCc1nnc(C2CCCCC2)o1)N1CCN(c2ccccc2F)CC1 | 8.97
104 | COc1ccc(N2COC3c4cccc5cccc(c45)C32)cc1 (stereo not given) | 17.8

Row | SMILES | AC30 [µM]
105 | COc1ccccc1C(=O)O/N=C(\N)c1ccc(Cl)cc1 | 6.87
106 | Clc1ccc(SCc2cn3ccsc3n2)cc1 | 8.8
107 | COc1cccc(/C=C2\N=C3CCCCCN3C2=O)c1 | 16.1
108 | Cc1ccc(Nc2ncccc2C(N)=O)cc1[N+](=O)[O-] | 5.42
109 | Cc1csc(=NC(=O)c2ccccc2)n1C | 8.72
110 | O=C(COc1ccc(F)cc1Br)N1CCc2ccccc21 | 4.78
111 | CCOC(=O)c1c(Nc2ccc(OC)cc2)n[nH]c1C | 11.4
112 | Cn1c(CCNC(=O)c2ccco2)nc2cc(NC(=O)c3ccco3)ccc21 | 11.8
113 | O=C(Nc1ccc2nc(-c3ccccc3)[nH]c2c1)c1ccco1 | 16.9
114 | O=C(C=Cc1ccco1)c1ccc2ccccc2c1 | 11.2
115 | Cc1cccc(C(=O)OCC(=O)N2CCCCCC2)c1C | 12.1
116 | O=C(c1cc(-c2cccc(O)c2)on1)N1CCCCCC1 | 4.78
117 | Cc1ccc2oc(-c3cccc(NC(=O)c4ccccn4)c3)nc2c1 | 10.9
118 | Nc1ccccc1NC(=O)c1ccccc1 | 8.77
119 | O=C1c2ccccc2C(=O)C1c1ccc(O)cc1 | 14.7
120 | O=C(NC1CCCC1)c1cc(-c2ccccc2)on1 | 8.71
121 | COc1ccc2oc(C(=O)c3ccccc3)c(N)c2c1 | 7.18
122 | O=c1c2cccc(Cl)c2nc2n1Cc1ccccc1-2 | 16.7
123 | COc1cccc(NC(=O)c2csc3c2CCCC3)c1 | 4.78
124 | CC(=O)Nc1ccc2nc3ccccc3nc2c1 | 15.3
125 | Fc1ccc2nc3[nH]c4ccccc4c3nc2c1 | 8.76
126 | COc1ccc(NC(=O)c2ccccc2NC(=O)C2CCCCC2C(=O)O)cc1 (stereo not given) | 19.3
127 | C(=C\c1nc(-c2cccnc2)no1)/c1ccccc1 | 4.78
128 | COC(=O)CCc1sc(Nc2ccccc2)nc1-c1ccc(OC)cc1 | 12.9
129 | CCC(=O)Nc1sc(C(=O)Nc2ccccc2)c(C)c1C(=O)OC | 9.81
130 | Cc1cccc(NC(=O)c2ccccn2)c1C | 11.4

Reference: PubChem BioAssay AID1053144 (Broad Institute, 2014)
